{"source": "patent US11311543B2", "about": "“Compositions and methods for inhibiting PTPN22” (YALE UNIVERSITY, priority 2016, dated 2022)", "tested_on": "PTPN22", "assay": "PTPN22 expression by western blot in shRNA-transduced RAMOS B cell line", "type": "cell-based", "settings": "human RAMOS B cell line, GFP+ shRNA+ vs GFP-", "experimental": "FIG. 10A depicts flow cytometry analysis of Ramos B cells transduction efficiency. Ramos B cells were transduced with three different GFP-tagged shRNA PTPN22 expressing lentiviruses and probed for GFP expression. […] Percentage of knock-down is indicated. FIG. 10B depicts the frequencies of polyreactive new emigrant B cells from sorted GFP− fractions were determined. […] For each B-cell fraction, the frequency of reactive (filled area) and non-reactive (open area) clones is summarized in pie charts with the total number of clones tested indicated in the center. FIG. 10C depicts the frequencies of HEp-2 reactive new emigrant B cells from sorted GFP− fractions were determined. […] For each B-cell fraction, the frequency of reactive (filled area) and non-reactive (open area) clones is summarized in pie charts with the total number of clones tested indicated in the center. FIG. 10D depicts the frequencies of antinuclear new emigrant B cells are compared between GFP− and GFP+ shRNA+ new emigrant B cells. […]\nTotal cell lysates were separated by SDS page, transferred to PVDF membranes, probed with mouse anti-PTPN22 (Invitrogen) and detected by chemiluminescence (Amersham ECL Prime Western Blotting detection Reagent) using a GBox documentation system (Syngene). For quantification, blots were stripped with stripping buffer (Pierce) and reprobed with a mouse anti-β-Actin antibody (Sigma-Aldrich)."}
{"substance": "#3: shRNA targeting human PTPN22, 5′-AAGAATCCACCTGACTTCC-3′", "values": [{"measurement": "inhibition of PTPN22 expression detected by western blot", "value": "about 80%"}]}
